In ChEMBL document CHEMBL5512632, “Unlocking the potential of 1,4-naphthoquinones: A comprehensive review of their anticancer properties” (Eur J Med Chem, 2024):
In brackets after ≈: the same amount, converted by molar mass. Values belong to the compound of their own block, whether it stands above or below them.

Legend:
[1] = test system: MCF7; test: Antiproliferative activity against human MCF7 cells assessed as inhibition of cell growth incubated upto 120 hrs by MTS assay; format: functional, cell-based; conditions: MCF7, 120 h
[2] = test system: Hs-578T; test: Antiproliferative activity against human Hs-578T cells assessed as inhibition of cell growth incubated upto 120 hrs by MTS assay; format: functional, cell-based
[3] = test system: HCC1806; test: Antiproliferative activity against human HCC1806 cells assessed as inhibition of cell growth incubated upto 120 hrs by MTS assay; format: functional, cell-based; conditions: HCC1806, 120 h
[4] = test system: MDA-MB-231; test: Antiproliferative activity against human MDA-MB-231 cells assessed as inhibition of cell growth incubated upto 120 hrs by MTS assay; format: functional, cell-based; conditions: MDA-MB-231, 120 h
[5] = test system: PANC-1; test: Antiproliferative activity against human PANC-1 cells assessed as inhibition of cell growth incubated for 48 hrs by MTT reagent based microplate reader assay; format: functional; conditions: PANC-1, 48 h
[6] = test system: MCF7; test: Antiproliferative activity against human MCF7 cells assessed as inhibition of cell growth incubated for 48 hrs by MTT reagent based microplate reader assay; format: functional; conditions: MCF7, 48 h
[7] = test system: PC-3; test: Antiproliferative activity against human PC-3 cells assessed as inhibition of cell growth incubated for 48 hrs by MTT reagent based microplate reader assay; format: functional; conditions: PC-3, 48 h
[8] = test system: DU-145; test: Antiproliferative activity against human DU-145 cells assessed as inhibition of cell growth incubated for 48 hrs by MTT reagent based microplate reader assay; format: functional; conditions: DU-145, 48 h
[9] = test system: HeLa; test: Antiproliferative activity against human HeLa cells assessed as inhibition of cell growth incubated for 48 hrs by MTT reagent based microplate reader assay; format: functional
[10] = test system: HepG2; test: Antiproliferative activity against human HepG2 cells assessed as inhibition of cell growth incubated for 48 hrs by MTT reagent based microplate reader assay; format: functional; conditions: HepG2, 48 h
[11] = test system: HT-29; test: Antiproliferative activity against human HT-29 cells assessed as inhibition of cell growth incubated for 48 hrs by MTT reagent based microplate reader assay; format: functional; conditions: HT-29, 48 h
[12] = test system: A549; test: Antiproliferative activity against human A549 cells assessed as inhibition of cell growth incubated for 48 hrs by MTT reagent based microplate reader assay; format: functional; conditions: A549, 48 h
[13] = test system: HCT-116; test: Antiproliferative activity against human HCT-116 cells assessed as inhibition of cell growth incubated for 48 hrs by MTT reagent based microplate reader assay; format: functional; conditions: HCT-116, 48 h
[14] = test system: HepG2; test: Cytotoxicity against human HepG2 cells assessed as inhibition of cell growth incubated for 24 hrs by MTT reagent based microplate reader assay; format: functional; conditions: HepG2, 24 h
[15] = test system: Huh-7; test: Cytotoxicity against human Huh-7 cells assessed as inhibition of cell growth incubated for 24 hrs by MTT reagent based microplate reader assay; format: functional; conditions: Huh-7, 24 h
[16] = test system: Hep 3B2; test: Cytotoxicity against human Hep3B cells assessed as inhibition of cell growth incubated for 24 hrs by MTT reagent based microplate reader assay; format: functional
[17] = test system: SW1353; test: Antiproliferative activity against human SW1353 cells assessed as inhibition of cell growth incubated for 24 hrs by CellTiter-Glo luminescent assay; format: functional, cell-based; conditions: SW1353, 24 h
[18] = Antiproliferative activity against human CAL-78 cells assessed as inhibition of cell growth incubated for 24 hrs by CellTiter-Glo luminescent assay; format: functional, cell-based; conditions: CAL-78, 24 h
[19] = test system: SCC-25; test: Cytotoxicity against human SCC-25 cells incubated for 48 hrs by MTT reagent based spectrophotometric analysis; format: functional, cell-based; conditions: SCC-25, 48 h
[20] = test system: MCF7; test: Cytotoxicity against human MCF7 cells assessed as reduction in cell growth incubated for 48 hrs by MTT assay; format: functional, cell-based; conditions: MCF7, 48 h
[21] = test system: DU-145; test: Cytotoxicity against human DU-145 cells assessed as reduction in cell growth incubated for 48 hrs by MTT assay; format: functional, cell-based; conditions: DU-145, 48 h
[22] = test system: T-24; test: Cytotoxicity against human T24 cells assessed as reduction in cell growth incubated for 48 hrs by MTT assay; format: functional, cell-based; conditions: T-24, 48 h
[23] = test system: MCF7; test: Cytotoxicity against human MCF7 cells incubated for 24 hrs by MTT assay; format: functional, cell-based; conditions: MCF7, 24 h
[24] = test system: HepG2; test: Cytotoxicity against human HepG2 cells assessed as reduction in cell viability incubated for 72 hrs by MTT assay; format: functional, cell-based; conditions: HepG2, 72 h
[25] = test system: MCF7; test: Cytotoxicity against human MCF7 cells assessed as reduction in cell viability incubated for 72 hrs by MTT assay; format: functional, cell-based; conditions: MCF7, 72 h
[26] = test system: RPMI-8226; test: Cytotoxicity against human RPMI-8226 cells assessed as reduction in cell viability incubated for 72 hrs by MTT assay; format: functional, cell-based; conditions: RPMI-8226, 72 h
[27] = test system: GBM; test: Cytotoxicity against human GBM cells assessed as inhibition of cell growth incubated for 72 hrs by MTT assay; format: functional, cell-based
[28] = test system: U-87 MG; test: Cytotoxicity against human U87 cells assessed as inhibition of cell growth incubated for 72 hrs by MTT assay; format: functional, cell-based, U-87MG ATCC
[29] = test system: CCRF-CEM; test: Antiproliferative activity against human CCRF-CEM cells assessed as inhibition of cell growth incubated for 72 hrs by resazurin assay; format: functional, cell-based
[30] = test system: ADR5000 cell line; test: Antiproliferative activity against human ADR5000 cell line assessed as inhibition of cell growth incubated for 72 hrs by resazurin assay; format: functional, cell-based; conditions: ADR5000, 72 h
[31] = test system: AGS; test: Antiproliferative activity against human AGS cells assessed as inhibition of cell growth incubated for 24 hrs by MTT reagent based microplate reader assay; format: functional
[32] = test system: NCI-N87; test: Antiproliferative activity against human NCI-N87 cells assessed as inhibition of cell growth incubated for 24 hrs by MTT reagent based microplate reader assay; format: functional; conditions: NCI-N87, 24 h
[33] = test system: HepG2; test: Antiproliferative activity against human HepG2 cells assessed as inhibition of cell growth incubated for 24 hrs by MTT reagent based microplate reader assay; format: functional; conditions: HepG2, 24 h
[34] = Antiproliferative activity against human SNU-216 cells assessed as inhibition of cell growth incubated for 24 hrs by MTT reagent based microplate reader assay; format: functional; conditions: SNU-216, 24 h
[35] = Antiproliferative activity against human SNU-484 cells assessed as inhibition of cell growth incubated for 24 hrs by MTT reagent based microplate reader assay; format: functional; conditions: SNU-484, 24 h
[36] = Antiproliferative activity against human YCC-6 cells assessed as inhibition of cell growth incubated for 24 hrs by MTT reagent based microplate reader assay; format: functional; conditions: YCC-6, 24 h
[37] = Antiproliferative activity against human YCC-1 cells assessed as inhibition of cell growth incubated for 24 hrs by MTT reagent based microplate reader assay; format: functional; conditions: YCC-1, 24 h
[38] = test system: Hep 3B2; test: Antiproliferative activity against human Hep3B cells assessed as inhibition of cell growth incubated for 24 hrs by MTT reagent based microplate reader assay; format: functional
[39] = test system: Huh-7; test: Antiproliferative activity against human Huh-7 cells assessed as inhibition of cell growth incubated for 24 hrs by MTT reagent based microplate reader assay; format: functional; conditions: Huh-7, 24 h
[40] = test system: MKN-28; test: Antiproliferative activity against human MKN-28 cells assessed as inhibition of cell growth incubated for 24 hrs by MTT reagent based microplate reader assay; format: functional; conditions: MKN-28, 24 h
[41] = Antiproliferative activity against human YCC-16 cells assessed as inhibition of cell growth incubated for 24 hrs by MTT reagent based microplate reader assay; format: functional; conditions: YCC-16, 24 h
[42] = test system: MKN-45; test: Antiproliferative activity against human MKN-45 cells assessed as inhibition of cell growth incubated for 24 hrs by MTT reagent based microplate reader assay; format: functional; conditions: MKN-45, 24 h
[43] = test system: HeLa; test: Cytotoxicity against human HeLa cells assessed as reduction in cell viability incubated for 24 hrs by MTT assay; format: functional, cell-based
[44] = test system: A549; test: Cytotoxicity against human A549 cells assessed as reduction in cell viability incubated for 24 hrs by MTT assay; format: functional, cell-based; conditions: A549, 24 h
[45] = test system: MCF7; test: Cytotoxicity against human MCF7 cells assessed as reduction in cell viability incubated for 24 hrs by MTT assay; format: functional, cell-based; conditions: MCF7, 24 h
[46] = test system: A549; test: Antiproliferative activity against human A549 cells assessed as inhibition of cell growth by MTT assay; format: functional, cell-based

IC50 [1]: 5500 nM
IC50 [3]: 2680 nM
IC50 [4]: 3280 nM
Structure (SMILES): COc1ccc(OC)c2c1C(=O)C(Cl)=C(Cl)C2=O
IC50 [2]: 1630 nM

IC50 [5]: 16100 nM
IC50 [6]: 7200 nM
IC50 [7]: 10000 nM
IC50 [8]: 8800 nM
IC50 [9]: 21000 nM
IC50 [10]: 7400 nM
IC50 [11]: 2900 nM
IC50 [12]: 15400 nM
IC50 [13]: 6500 nM
Structure (SMILES): CCCCCCCC/C=C\CCCCCCCC(=O)Oc1cccc2c1C(=O)C=C(C)C2=O

Structure (SMILES): CCCS(=O)(=O)C12OC1C(=O)c1c(OC)ccc(OC)c1C2=O (stereo unspecified)
IC50 [14]: 5260 nM
IC50 [15]: 7680 nM
IC50 [16]: 3890 nM

IC50 [17]: 1200 nM
Structure (SMILES): CC(C)=CC[C@@H](OC(=O)C1CC1)C1=CC(=O)c2c(O)ccc(O)c2C1=O
IC50 [18]: 2900 nM

Structure (SMILES): CC(C)/C=C/C1=C(OCc2cn(-c3cccc(Cl)c3)nn2)C(=O)c2ccccc2C1=O
IC50 [19]: 9810 nM

Structure (SMILES): O=C(C1=C(Nc2ccccc2)C(=O)c2ccccc2C1=O)c1ccco1
IC50 [20]: 4640 nM
IC50 [21]: 5450 nM
IC50 [22]: 11700 nM
EC50 [23]: 15000 nM

Structure (SMILES): CCOC(=O)CCCCCNC1=C(F)C(=O)c2c(F)c(F)c(F)c(F)c2C1=O
IC50 [24]: 2100 nM
IC50 [25]: 1400 nM
IC50 [26]: 2800 nM

Structure (SMILES): CC(C)=CCC1=C(NCCCCN(CCCN)Cc2ccccc2)C(=O)c2ccccc2C1=O
IC50 [27]: 6600 nM
IC50 [28]: 4300 nM

IC50 [29]: 1900 nM
Structure (SMILES): CCOc1ccc(NC(=O)C2=C(SC(C)(C)C)C(=O)c3ccccc3C2=O)cc1
IC50 [30]: 2000 nM

IC50 [31]: 420 nM
IC50 [33]: 870 nM
IC50 [39]: 2840 nM
IC50 [40]: 1200 nM
IC50 [42]: 820 nM
Structure (SMILES): COc1ccc(OC)c2c1C(=O)C=C(Sc1ccc3ccccc3c1)C2=O
IC50 [32]: 1530 nM
IC50 [34]: 890 nM
IC50 [35]: 1440 nM
IC50 [36]: 800 nM
IC50 [37]: 1300 nM
IC50 [38]: 900 nM
IC50 [41]: 1580 nM

Structure (SMILES): O=C(Nc1ccc(S(=O)(=O)c2ccc(NC3=C(Sc4ccccc4)C(=O)c4ccccc4C3=O)cc2)cc1)c1cc(Cl)cc(Cl)c1
IC50 [43]: 1170 nM
IC50 [44]: 1980 nM
IC50 [45]: 50 nM

IC50 [46]: 3 µg/mL (≈ 8.56 µM)
Structure (SMILES): CC(=O)NCC1=C(Nc2ccc(O)c(C)c2)C(=O)c2ccccc2C1=O
